System: adults with plaque psoriasis
Experiment: Long-term extension study (PSOARING 3): % BSA affected
Type: in vivo, human
Procedure: The % BSA affected is an estimate of the percentage of total involved skin with psoriasis. For the purpose of clinical estimation, the total palmar surface of the subject's palm and digits was assumed to be approximately equivalent to 1% BSA. The % BSA affected by psoriasis was evaluated (from 0% to 100%). Details on calculation of approximate % BSA involvement in each subject (total and individual) can be found in Appendix 2 of the protocol. Percent BSA is a static assessment made without reference to previous scores.
At Screening, Baseline, and for all efficacy assessments, lesions on the subject's scalp, palms, fingernails, toenails, and soles were not included in the calculation of % BSA affected as these areas were excluded from the efficacy analyses.

[1] = Week 16 LOCF, Tapinarof (Pivotal)
[2] = Week 16 LOCF, Vehicle (Pivotal)
[3] = Week 16 OC, Tapinarof (Pivotal)
[4] = Week 40 LOCF, Tapinarof (Pivotal)
[5] = Week 40 LOCF, Vehicle (Pivotal)
[6] = Week 40 OC, Tapinarof (Pivotal)

Compound: CC(C)c1c(O)cc(/C=C/c2ccccc2)cc1O [Tapinarof Cream 1%]
- % BSA affected, Observed, Mean (Baseline, Overall): 4.65 % BSA
- % BSA affected, Observed, Median (Baseline, Overall): 3.00 % BSA
- % BSA affected, Observed, Mean (Baseline, Tapinarof (Pivotal)): 3.31 % BSA
- % BSA affected, Observed, Median (Baseline, Tapinarof (Pivotal)): 2.00 % BSA
- % BSA affected, CFBL, Mean (Week 16 LOCF, Overall): −1.85 % BSA
- % BSA affected, CFBL, Median (Week 16 LOCF, Overall): −0.96 % BSA
- % BSA affected, Observed, Mean (Week 16 LOCF, Overall): 2.82 % BSA
- % BSA affected, Observed, Median (Week 16 LOCF, Overall): 1.20 % BSA
- % BSA affected, Percent CFBL, Mean (Week 16 LOCF, Overall): −20.99%
- % BSA affected, Percent CFBL, Median (Week 16 LOCF, Overall): −46.13%
- % BSA affected, CFBL, Mean [1]: −0.77 % BSA
- % BSA affected, CFBL, Median [1]: −0.20 % BSA
- % BSA affected, Observed, Mean [1]: 2.54 % BSA
- % BSA affected, Observed, Median [1]: 1.00 % BSA
- % BSA affected, Percent CFBL, Mean [1]: −5.67%
- % BSA affected, Percent CFBL, Median [1]: −33.33%
- % BSA affected, CFBL, Mean [2]: −3.96 % BSA
- % BSA affected, CFBL, Median [2]: −2.98 % BSA
- % BSA affected, Observed, Mean [2]: 3.36 % BSA
- % BSA affected, Observed, Median [2]: 1.80 % BSA
- % BSA affected, Percent CFBL, Mean [2]: −47.15%
- % BSA affected, Percent CFBL, Median [2]: −63.42%
- % BSA affected, CFBL, Mean (Week 16 OC, Overall): −2.11 % BSA
- % BSA affected, CFBL, Median (Week 16 OC, Overall): −1.00 % BSA
- % BSA affected, Observed, Mean (Week 16 OC, Overall): 2.28 % BSA
- % BSA affected, Observed, Median (Week 16 OC, Overall): 1.02 % BSA
- % BSA affected, Percent CFBL, Mean (Week 16 OC, Overall): −31.25%
- % BSA affected, Percent CFBL, Median (Week 16 OC, Overall): −50.00%
- % BSA affected, CFBL, Mean [3]: −0.97 % BSA
- % BSA affected, CFBL, Median [3]: −0.23 % BSA
- % BSA affected, Observed, Mean [3]: 1.97 % BSA
- % BSA affected, Observed, Median [3]: 1.00 % BSA
- % BSA affected, Percent CFBL, Mean [3]: −18.46%
- % BSA affected, Percent CFBL, Median [3]: −36.96%
- % BSA affected, CFBL, Mean (Week 16 OC, Vehicle (Pivotal)): −4.40 % BSA
- % BSA affected, CFBL, Median (Week 16 OC, Vehicle (Pivotal)): −3.18 % BSA
- % BSA affected, Observed, Mean (Week 16 OC, Vehicle (Pivotal)): 2.89 % BSA
- % BSA affected, Observed, Median (Week 16 OC, Vehicle (Pivotal)): 1.50 % BSA
- % BSA affected, Percent CFBL, Mean (Week 16 OC, Vehicle (Pivotal)): −53.18%
- % BSA affected, Percent CFBL, Median (Week 16 OC, Vehicle (Pivotal)): −66.67%
- % BSA affected, CFBL, Mean (Week 40 LOCF, Overall): −2.04 % BSA
- % BSA affected, CFBL, Median (Week 40 LOCF, Overall): −1.00 % BSA
- % BSA affected, Observed, Mean (Week 40 LOCF, Overall): 2.63 % BSA
- % BSA affected, Observed, Median (Week 40 LOCF, Overall): 1.00 % BSA
- % BSA affected, Percent CFBL, Mean (Week 40 LOCF, Overall): −16.29%
- % BSA affected, Percent CFBL, Median (Week 40 LOCF, Overall): −55.78%
- % BSA affected, CFBL, Mean [4]: −0.88 % BSA
- % BSA affected, CFBL, Median [4]: −0.30 % BSA
- % BSA affected, Observed, Mean [4]: 2.44 % BSA
- % BSA affected, Observed, Median [4]: 1.00 % BSA
- % BSA affected, Percent CFBL, Mean [4]: −0.11%
- % BSA affected, Percent CFBL, Median [4]: −46.61%
- % BSA affected, CFBL, Mean [5]: −4.33 % BSA
- % BSA affected, CFBL, Median [5]: −3.30 % BSA
- % BSA affected, Observed, Mean [5]: 2.99 % BSA
- % BSA affected, Observed, Median [5]: 1.00 % BSA
- % BSA affected, Percent CFBL, Mean [5]: −43.91%
- % BSA affected, Percent CFBL, Median [5]: −75.06%
- % BSA affected, CFBL, Mean (Week 40 OC, Overall): −2.35 % BSA
- % BSA affected, CFBL, Median (Week 40 OC, Overall): −1.50 % BSA
- % BSA affected, Observed, Mean (Week 40 OC, Overall): 1.85 % BSA
- % BSA affected, Observed, Median (Week 40 OC, Overall): 0.72 % BSA
- % BSA affected, Percent CFBL, Mean (Week 40 OC, Overall): −35.43%
- % BSA affected, Percent CFBL, Median (Week 40 OC, Overall): −67.00%
- % BSA affected, CFBL, Mean [6]: −0.93 % BSA
- % BSA affected, CFBL, Median [6]: −0.49 % BSA
- % BSA affected, Observed, Mean [6]: 1.75 % BSA
- % BSA affected, Observed, Median [6]: 0.68 % BSA
- % BSA affected, Percent CFBL, Mean [6]: −21.60%
- % BSA affected, Percent CFBL, Median [6]: −57.39%
- % BSA affected, CFBL, Mean (Week 40 OC, Vehicle (Pivotal)): −5.30 % BSA
- % BSA affected, CFBL, Median (Week 40 OC, Vehicle (Pivotal)): −4.49 % BSA
- % BSA affected, Observed, Mean (Week 40 OC, Vehicle (Pivotal)): 2.07 % BSA
- % BSA affected, Observed, Median (Week 40 OC, Vehicle (Pivotal)): 0.80 % BSA
- % BSA affected, Percent CFBL, Mean (Week 40 OC, Vehicle (Pivotal)): −60.22%
- % BSA affected, Percent CFBL, Median (Week 40 OC, Vehicle (Pivotal)): −86.06%

— patent US20220395472A1 (Dermavant Sciences GmbH, priority 2021, published 2022)
